# Measured values published in patent publication US6630447B2, “Peptide inhibitors of LFA-1/ICAM-1 interaction” (University of New Mexico, priority 2000, dated 2003).
# Where two headings read alike, the source gives them in different places. Bridge positions count the residues as written; N and C are the ends. Peptide text beside a SMILES is read from it.
# What was measured:
# [1] = tested on: neutrophil binding to stimulated endothelial cells; assay: Firm attachment of neutrophils to stimulated endothelial cells in a parallel plate flow chamber; format: cell-based, human; settings: for Percent Inhibition of firm attachment of neutrophils: (1 − (Observed/Maximum)) × 100; for Percent Inhibition of firm attachment of neutrophils / Firmly attached neutrophils, Cells/mm^2: (SD) in parentheses; for Neutrophil-binding to endothelium (in words): physiologic flow conditions; for Firmly attached neutrophils, Cells/mm^2: physiologic flow
# Excerpt: An assay has been developed that provides an in vitro model of neutrophils or APL cells binding to activated endothelium. The binding of APL cells using a parallel plate flow chamber recapitulates events that occur in retinoic acid syndrome (Larson et al., 1997; Brown et al., 1999). A parallel plate flow chamber simulates the physiologic flow conditions in blood and adhesive interactions in post-capillary venules. Post-capillary venules are the physiologically relevant locations of leukemia cell-endothelial cell interaction and extravasation. […] Monolayers of endothelial cells are placed in the parallel plate flow chamber, and the leukemic cells are pumped through the chamber at physiologic flow rates. The interaction between the flowing leukemia cells and the endothelium are videotaped microscopically, and the number of rolling, firmly adhered and transmigrated leukemia cells is quantified by computer-assisted image analysis.
# For investigating neutrophil binding, neutrophils are isolated from heparin anticoagulated venous blood of healthy adult donors by centrifugation on Ficoll-Hypaque density gradients as described by Simon et al. (1992). Isolated neutrophils are suspended at a concentration of 10^7/ml in Hanks' Balanced Salt Solution supplemented with 10 mmol/L HEPES, pH 7.4 and 0.2% human serum albumin (Armour Pharmaceutical, Kankakee, Ill.) and used within 2 hours of preparation. Neutrophils are kept on ice and resuspended in RPMi pre-warmed to 37° C. immediately before use.
# [2] = tested on: LFA-1/ICAM-1 mediated JY cell aggregation; format: cell-based; settings: for Percent Inhibition: (1 − (Observed/Max) × 100); for Percent Inhibition / Percent JY Aggregation: (SD) in parentheses; for Inhibition of LFA-1/ICAM-1 mediated JY cell aggregation compared to SEQ ID NO: 1 (in words): substituted derivatives of the consensus peptide
# Description: LFA-1 dependent cell aggregation has been previously studied using an aggregation assay it with a variety of leukocyte subclasses and cell lines (Larson et al., 1990; Wang et al., 1988; Larson et al., 1997). JY cells were obtained form American Type Tissue Culture Collection and were maintained in RPMI 1640 supplemented with 10% FBS at 37° C. in 5% CO2. Aggregation of cells was measured in a homotypic aggregation assay using ICAM-1 as a stimuli. JY cells were washed twice with serum free medium and resuspended at a concentration of 4×10^5 is cells/ml. Cells were preincubated with the desired concentration of peptide for 15 min at room temperature. In a final volume of 100 μl, 50 μl of cells and peptide were seeded in 96 well flat bottomed microtiter plates. Cells were allowed to aggregate at 37° C. in humidified air with 5% CO2. Cells were visualized and counted by inverted phase contrast microscopy at the time indicated. Within each well of aggregates as well as the total number of free (single) cells were counted. percent aggregation was determined by the following equation:
# Percent aggregation=100×(1−number of free cells/total number of cells)
# The consensus peptide (SEQ ID NO: 1) and the randomized sequence CLMIRMLRC (SEQ ID NO: 33), cyclizied in the disulfide-linked form, were synthesized by Biopeptide (San Diego, Calif.) and tested in a screening assay for the ability to inhibit aggregation of the cell line JY, which aggregates in an LFA-1/CAM-1 dependent manner. Aggregation measurements are relatively rapid and quantifiable. Furthermore, small volumes are used minimizing peptide consumption. Finally, cell aggregation in vitro depends on a multivalent LFA-1/ICAM-1 interaction. A peptide that is identified as being able to block cell aggregation in vitro is, therefore, likely to have affinity and off-rate characteristics that would make it an effective in vivo inhibitor, since cell—cell interaction in vivo also involves multivalent LFA-1/ICAM-1 interaction. Using this assay, the consensus peptide sequence has an IC50 of 500 μM (FIG. 1).
# Peptides are initially tested for their ability to block LFA-1/ICAM dependent aggregation of the cell line JY (Wang et al., 1988; Larson et al., 1997). Peptides are preferably tested over a range of concentrations ([…], for example) and the concentration leading to half maximal inhibition of aggregation (IC50) is determined for all the peptide sequences.
# [3] = Solubility of peptides in aqueous solution; format: physicochemical
# Excerpt: An alternative derivative peptide strategy was undertaken in which the consensus sequence peptide was subjected to an alanine-screening procedure as described by Cunningham and Wells, 1989. Peptides cyclizied in the disulfide-linked form were synthesized by Biopeptide (San Diego, Calif.) wherein an alanine was substituted at each position in the hepatapeptide LLRMRSI of the consensus sequence SEQ ID NO: 1, and each peptide was examined in parallel for its ability to inhibit LFA-1/ICAM-1 mediated JY cell aggregation. Six of the seven peptides were soluble in aqueous solution. SEQ ID NO: 376, representing a substitution of the arginine in position 4 of SEQ ID NO: 1, was not soluble at […] and could not be tested. […] The randomized sequence CLRLSRIMC (SEQ ID NO: 56) was used as a control.
# [4] = Table 3, alanine-substituted derivations
# [5] = Table 4, homologous amino acid substitutions
Molecule,"Percent Inhibition ([2]; Table 3, JY cell aggregation)","Percent JY Aggregation [2, 4]","Percent Inhibition ([2]; Table 4, JY cell aggregation)","Percent JY Aggregation [2, 5]",Inhibition of LFA-1/ICAM-1 mediated JY cell aggregation compared to SEQ ID NO: 1 (in words) [2],also measured
"CC[C@H](C)[C@@H]1NC(=O)[C@H](CO)NC(=O)[C@H](CCCNC(=N)N)NC(=O)[C@H](CCSC)NC(=O)[C@H](CCCNC(=N)N)NC(=O)[C@H](CC(C)C)NC(=O)[C@H](CC(C)C)NC(=O)[C@@H](N)CSSC[C@@H](C(=O)O)NC1=O [SEQ ID NO: 1, CLLRMRSIC] (H-CLLRMRSIC-OH; disulfide 1-9)",46(11) Percent,41(8) Percent,45(9) Percent,30(5) Percent,,"Percent Inhibition of firm attachment of neutrophils [1]: 47(15) Percent; Neutrophil-binding to endothelium (in words) ([1]; parallel plate flow chamber): block; Firmly attached neutrophils, Cells/mm^2 [1]: 439(120) Cells/mm^2; Aggregation of JY cells (FIG. 1, in words) ([2]; titration of 100 μM to 1 mM): inhibited"
"CC[C@H](C)[C@@H]1NC(=O)[C@H](CO)NC(=O)[C@H](CCCNC(=N)N)NC(=O)[C@H](CCSC)NC(=O)[C@H](C)NC(=O)[C@H](CC(C)C)NC(=O)[C@H](CC(C)C)NC(=O)[C@@H](N)CSSC[C@@H](C(=O)O)NC1=O [SEQ ID NO: 36, CLLAMRSIC] (H-CLLAMRSIC-OH; disulfide 1-9)",,,,,Loss of inhibitory function,Solubility in aqueous solution ([3]; at 1 nm): Not Soluble
"CC[C@H](C)[C@@H]1NC(=O)[C@H](CCCNC(=N)N)NC(=O)[C@H](CO)NC(=O)[C@H](CC(C)C)NC(=O)[C@H](CCCNC(=N)N)NC(=O)[C@H](CC(C)C)NC(=O)[C@@H](N)CSSC[C@@H](C(=O)O)NC(=O)[C@H](CCSC)NC1=O [SEQ ID NO: 56, CLRLSRIMC, reference compound] (H-CLRLSRIMC-OH; disulfide 1-9 (inferred))",,,,,,Aqueous solubility relative to randomized sequence SEQ ID NO: 33 [3]: greater aqueous solubility
CALRMRSIC (OTHER INFORMATION: Description of Artificial Sequence:Synthetic) [SEQ ID NO: 34],7(19) Percent,71(15) Percent,,,Loss of inhibitory function,
CILRMRSAC (OTHER INFORMATION: Description of Artificial Sequence:Synthetic) [SEQ ID NO: 43],,,92(9) Percent,4(5) Percent,greater inhibition,
CLARMRSIC (OTHER INFORMATION: Description of Artificial Sequence:Synthetic) [SEQ ID NO: 35],9(22) Percent,69(17) Percent,,,Loss of inhibitory function,
CLIRMRSAC (OTHER INFORMATION: Description of Artificial Sequence:Synthetic) [SEQ ID NO: 44],,,93(3) Percent,4(2) Percent,greater inhibition,
CLLKMRSAC (OTHER INFORMATION: Description of Artificial Sequence:Synthetic) [SEQ ID NO: 45],,,94(3) Percent,3(2) Percent,greater inhibition,
CLLRARSIC (OTHER INFORMATION: Description of Artificial Sequence:Synthetic) [SEQ ID NO: 37],5(14) Percent,72(11) Percent,,,Loss of inhibitory function,
CLLRMASIC (OTHER INFORMATION: Description of Artificial Sequence:Synthetic) [SEQ ID NO: 38],11(12) Percent,68(9) Percent,,,Loss of inhibitory function,
CLLRMKSAC (OTHER INFORMATION: Description of Artificial Sequence:Synthetic) [SEQ ID NO: 46],,,90(4) Percent,6(2) Percent,greater inhibition,"Percent Inhibition of firm attachment of neutrophils [1]: 66(0) Percent; Inhibition of attachment of neutrophils to activated endothelium compared to SEQ ID NO: 1 (in words) ([1]; parallel plate flow chamber): greater inhibition; Neutrophil-binding to endothelium (in words) ([1]; parallel plate flow chamber): block; Firmly attached neutrophils, Cells/mm^2 [1]: 283(0) Cells/mm^2"
CLLRMRAIC (OTHER INFORMATION: Description of Artificial Sequence:Synthetic) [SEQ ID NO: 39],27(21) Percent,56(16) Percent,,,no significant effect,
CLLRMRSAC (OTHER INFORMATION: Description of Artificial Sequence:Synthetic) [SEQ ID NO: 40],61(17) Percent,29(13) Percent,,,more potent antagonist,
CLLRMRSLC (OTHER INFORMATION: Description of Artificial Sequence:Synthetic) [SEQ ID NO: 47],,,−12(13) Percent,61(7) Percent,,
CLLRMRSVC (OTHER INFORMATION: Description of Artificial Sequence:Synthetic) [SEQ ID NO: 48],,,92(3) Percent,4(1) Percent,greater inhibition,
"CLMIRMLRC (OTHER INFORMATION: Description of Artificial Sequence:Synthetic) [SEQ ID NO: 33, reference compound]",,,,,,"Aggregation of JY cells (FIG. 1, in words) ([2]; concentration of 1 mM): ineffective"
CLVRMRSAC (OTHER INFORMATION: Description of Artificial Sequence:Synthetic) [SEQ ID NO: 41],,,0(1) Percent,55(1) Percent,,
CVLRMRSAC (OTHER INFORMATION: Description of Artificial Sequence:Synthetic) [SEQ ID NO: 42],,,56(6) Percent,24(3) Percent,,
